{
  "source": "patent US8592451B2",
  "about": "“Reversible nondepolarizing neuromuscular blockade agents and methods for their use” (Cornell University, priority 2009, dated 2013)",
  "tested_on": "twitch of the extensor digitorum",
  "test": "Neuromuscular blocking potency and duration in anesthetized rhesus monkeys",
  "type": "in vivo, rhesus monkeys (Macaca mulatta)",
  "conditions": "in vivo, comparable level of neuromuscular blockade",
  "data": [
    {"compound": "COc1ccc(C[C@@H]2c3cc(OC)c(OC)cc3CC[N@@+]2(C)CCCOC(=O)/C=C\\C(=O)OCCC[N@+]2(C)CCc3cc(OC)c(OC)cc3[C@H]2Cc2cc(OC)c(OC)c(OC)c2)cc1OC", "note": "[CW 011]", "values": [
      {"measurement": "potency relative to CW 002", "value": "approximately twice"},
      {"measurement": "potency relative to gantacurium", "value": "four times"}
    ]}
  ]
}
